The values that follow come from patent US20250109140A1, “5-[5-(PIPERIDIN-4-YL)THIENO[3,2-C]PYRAZOL-2-YL]INDAZOLE DERIVATIVES AND RELATED COMPOUNDS AS MODULATORS FOR SPLICING NUCLEIC ACIDS AND FOR THE TREATMENT OF PROLIFERATIVE DISEASES” (REMIX THERAPUTICS INC., priority 2022, published 2025).

One assay has as its system HTT mRNA. As to the kind of experiment: Splicing RT-qPCR assay, HTT canonical (CJ) and alternative (AJ) junction mRNA. The assay is classed as cell-based. Conditions: Homo sapiens; for EC50: AC50 = 50% response in AJ mRNA increase. An outline of the steps: (§1)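 A673/K562; 11-pt 3-fold dil., top 10 uM final, ≤0.25% DMSO; 24 h, 37 °C, 5% CO2. Lysis, then RT-qPCR of CJ/AJ isoforms, ≥duplicate. ΔCt vs housekeeper (GAPDH/GUSB/PPIA), ΔΔCt vs DMSO, RQ = 2^(−ΔΔCt), expressed as % response.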
For orientation: In qPCR the cycle at which signal appears reflects the starting amount.

For the next assay, the system named is MYB mRNA. As to the kind of experiment: Splicing RT-qPCR assay, MYB canonical (CJ) and alternative (AJ) junction mRNA. The assay is classed as cell-based. The note with it: Homo sapiens; for EC50: AC50 = 50% response in AJ mRNA increase. A digest of the protocol:
as §1

A further assay concerns SMN2 mRNA. As to the kind of experiment: Splicing RT-qPCR gene panel, SMN2 canonical junction (CJ) mRNA. The assay is classed as cell-based. Conditions: Homo sapiens; Table 8; larger gene panel, decrease in CJ mRNA levels. A digest of the protocol: as §1
The next assay relates to Target C mRNA. Briefly: Splicing RT-qPCR gene panel, Target C canonical junction (CJ) mRNA. The format is cell-based. The note with it: Homo sapiens; Table 8; larger gene panel, decrease in CJ mRNA levels. A digest of the protocol:
as §1

For the next assay, the system named is HiBiT-tagged MYB protein. Briefly: HiBiT protein abundance assay, MYB (K562 HiBiT knock-in cells). The format is cell-based, human. Conditions: 24 hours treatment. An outline of the steps:
(§2)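 Luminescence from the Nano-Glo HiBiT lytic reagent measured tagged protein remaining in knock-in K562 cells after 24 h compound exposure (top dose 10 µM final, 3-fold, 10 points). Responses normalized between parental K562 and DMSO-treated lines were fit by four-parameter logistic to interpolate the 50% concentration.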

Another assay concerns HiBiT-tagged HTT protein. Briefly: HiBiT protein abundance assay, HTT (K562 HiBiT knock-in cells). The note with it: 24 hours treatment. The assay is classed as cell-based, human. An outline of the steps:
as §2
In general terms: With HiBiT, luminescence reflects the tagged protein that the partner subunit can reach.

In assay [1] the test system is K562 (human chronic myelogenous leukemia) cells. Briefly: Cell viability, Cell Titer Glo 2.0 assay, K562 cells. The assay is classed as cell-based. The note with it: 72 hours. An outline of the steps: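 Luminescent Cell Titer Glo 2.0 readout after 72 h exposure (37° C, 5% CO2), medium-only wells as blank. Cells plated 500/well in IMDM with 10% FBS; test compounds diluted from DMSO series 1:100 into medium, 0.1% DMSO final.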
(In general: In ATP-based viability assays light output follows the ATP content of the culture.)

In another assay the test system is Target C. As to the kind of experiment: HiBiT protein abundance assay, Target C (K562 HiBiT knock-in cells). The assay is classed as cell-based, human. The note with it: 24 hours treatment. An outline of the steps:
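The readout was Nano-Glo HiBiT lytic luminescence after 24 h compound exposure at 37 °C, in 10000 K562 knock-in cells/well. Compounds ran as 10-point, 3-fold series, top final […], ≤0.25% DMSO. Responses were scaled between parental K562 and DMSO-treated controls, and IC50 was interpolated at 50% from four-parameter logistic curves.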

Where [2] appears, read: Table 7, RT-qPCR, A673 or K562 cells, 24 hours treatment.
Setting [3] is: Table 7, IC50 = 50% response in CJ mRNA decrease, RT-qPCR, A673 or K562 cells, 24 hours treatment, read-out: HTT CJ.
[4] abbreviates: Table 8, larger gene panel, decrease in CJ mRNA levels, read-out: HTT CJ IC50.
[5] abbreviates: Table 7, IC50 = 50% response in CJ mRNA decrease, RT-qPCR, A673 or K562 cells, 24 hours treatment, read-out: MYB CJ.
[6] abbreviates: Table 8, larger gene panel, decrease in CJ mRNA levels, read-out: MYB CJ IC50.

In general, EC50 refers to the concentration needed to bring the measured effect to its halfway point. Higher therefore signals a need for much substance.

The structures appear in SMILES notation. Counter-ions that a name gives are not always drawn. Like-named read-outs stand apart in the source and are kept apart here. Some results are limits rather than exact numbers.

With `Cn1cc2cc(-c3cc4cn([C@H]5CCNC[C@@H]5F)nc4s3)cc(F)c2n1` [Compound 190], the EC50 in the assay with HTT mRNA (setting [2]) and with MYB mRNA (setting [2]) was 100 to 1000 nM throughout. Moreover, the IC50 in the assay on HTT mRNA (setting [3]) was less than 100 nM; in the assay on HTT mRNA (setting [4]), 100 to 1000 nM; with MYB mRNA (setting [5]), 100 to 1000 nM; in the assay with MYB mRNA (setting [6]) it was 100 to 1000 nM; in the assay on SMN2 mRNA, less than 100 nM; in the assay on Target C mRNA, 100 to 1000 nM. Further, the IC50 was in the range of 1000 to 10000 nM with HiBiT-tagged MYB protein, 100 to 1000 nM in the assay with HiBiT-tagged HTT protein, 1000 to 10000 nM in assay [1] and 1000 to 10000 nM with Target C.

Regarding `Cn1cc2cc(-c3cc4cn(C5CCNCC5)nc4s3)ccc2n1` [Compound 207], the EC50 fell in the range of 100 to 1000 nM with HTT mRNA (setting [2]) and 1000 to 10000 nM in the assay with MYB mRNA (setting [2]). The IC50 was 100 to 1000 nM in the assay on HTT mRNA (setting [3]); 100 to 1000 nM with HTT mRNA (setting [4]); 1000 to 10000 nM in the assay with MYB mRNA (setting [5]); 1000 to 10000 nM with MYB mRNA (setting [6]); less than 100 nM in the assay with SMN2 mRNA; 1000 to 10000 nM in the assay with Target C mRNA. Besides, the IC50 in the assay with HiBiT-tagged MYB protein was 1000 to 10000 nM; in the assay with HiBiT-tagged HTT protein, less than 100 nM; in assay [1], 1000 to 10000 nM; with Target C, 100 to 1000 nM.

Regarding `Cn1cc2cc(-c3cc4cn(C5CCNCC5)nc4s3)c(F)cc2n1` [Compound 210], the EC50 is less than 100 nM with HTT mRNA (setting [2]) and 100 to 1000 nM in the assay on MYB mRNA (setting [2]). Also, the IC50 with HTT mRNA (setting [3]) was less than 100 nM; in the assay with HTT mRNA (setting [4]), less than 100 nM; in the assay on MYB mRNA (setting [5]), 100 to 1000 nM; in the assay on MYB mRNA (setting [6]) it was 100 to 1000 nM; in the assay on SMN2 mRNA, less than 100 nM; in the assay with Target C mRNA, 100 to 1000 nM. Also, the IC50 in the assay on HiBiT-tagged MYB protein is 100 to 1000 nM; in the assay with HiBiT-tagged HTT protein it was less than 100 nM; in assay [1], 100 to 1000 nM; in the assay on Target C it was 100 to 1000 nM.

`Cn1cc2cc(-c3cc4cn(C5CCNCC5)nc4s3)c(C#N)cc2n1` [Compound 211]: the EC50 in the assay with HTT mRNA (setting [2]) and in the assay on MYB mRNA (setting [2]) was 1000 to 10000 nM in each case. The IC50 lay in the range of 1000 to 10000 nM in the assay on HTT mRNA (setting [3]); 1000 to 10000 nM with HTT mRNA (setting [4]); 1000 to 10000 nM in the assay with MYB mRNA (setting [5]); 1000 to 10000 nM in the assay on MYB mRNA (setting [6]); 100 to 1000 nM with SMN2 mRNA; 1000 to 10000 nM in the assay with Target C mRNA. For the same compound, the IC50 with HiBiT-tagged MYB protein was 1000 to 10000 nM; in the assay on HiBiT-tagged HTT protein, 100 to 1000 nM; in assay [1] it was 1000 to 10000 nM; with Target C, 1000 to 10000 nM.

Turning to `Cc1cn2nc(-c3cc4cn(C5CCNCC5)nc4s3)c(O)c2c(C)n1` [Compound 213, 4,6-dimethyl-2-[2-(piperidin-4-yl)thieno[2,3-c]pyrazol-5-yl]pyrazolo[1,5-a]pyrazin-3-ol hydrochloride], the EC50 in the assay with HTT mRNA (setting [2]) and in the assay on MYB mRNA (setting [2]) was 1000 to 10000 nM throughout. Besides, the IC50 in the assay on HTT mRNA (setting [3]) is 1000 to 10000 nM; in the assay with HTT mRNA (setting [4]), 1000 to 10000 nM; in the assay with MYB mRNA (setting [5]), greater than 10000 nM; in the assay with MYB mRNA (setting [6]), 1000 to 10000 nM; in the assay with SMN2 mRNA, 1000 to 10000 nM; in the assay with Target C mRNA, greater than 10000 nM. Besides, the IC50 in the assay on HiBiT-tagged MYB protein is greater than 10000 nM; in the assay on HiBiT-tagged HTT protein, greater than 10000 nM; in assay [1], 1000 to 10000 nM; in the assay on Target C, greater than 10000 nM.

Turning to `Cn1cc2cc(-c3cc4cn(C5CCNCC5)nc4s3)ncc2n1` [Compound 214], the 50% effective concentration (EC50) is 100 to 1000 nM with HTT mRNA (setting [2]) and 1000 to 10000 nM with MYB mRNA (setting [2]). In addition, the IC50 in the assay on HTT mRNA (setting [3]) lay in the range of 1000 to 10000 nM; in the assay on HTT mRNA (setting [4]), 100 to 1000 nM; in the assay with MYB mRNA (setting [5]), 1000 to 10000 nM; with MYB mRNA (setting [6]) it was 1000 to 10000 nM; in the assay with SMN2 mRNA, 100 to 1000 nM; with Target C mRNA, 1000 to 10000 nM. The IC50 (in the assay with HiBiT-tagged MYB protein; with HiBiT-tagged HTT protein; in assay [1]; in the assay with Target C) was 1000 to 10000 nM each time.

For `Cn1cc2cc(-c3cc4cn(C5CCNCC5)nc4s3)c(O)c(F)c2n1` [Compound 215], the EC50 with HTT mRNA (setting [2]) and in the assay with MYB mRNA (setting [2]) was 100 to 1000 nM each time. The IC50 in the assay on HTT mRNA (setting [3]) is 100 to 1000 nM; in the assay with HTT mRNA (setting [4]), 100 to 1000 nM; in the assay on MYB mRNA (setting [5]) it was 1000 to 10000 nM; with MYB mRNA (setting [6]) it was 100 to 1000 nM; with SMN2 mRNA, less than 100 nM; with Target C mRNA, 100 to 1000 nM. Moreover, the IC50 in the assay with HiBiT-tagged MYB protein lay in the range of 1000 to 10000 nM; in the assay on HiBiT-tagged HTT protein, 100 to 1000 nM; in assay [1], 1000 to 10000 nM; with Target C, 1000 to 10000 nM.
